Data reported in publication PMC10100792, “Host-Erythrocytic Sphingosine-1-Phosphate Regulates Plasmodium Histone Deacetylase Activity and Exhibits Epigenetic Control over Cell Death and Differentiation” (Microbiology Spectrum, 2023).

What was measured:
[1] = target: T1, hSphK-1 (sphingosine kinase 1) (Homo sapiens, UniProt Q9NYA1); experiment: fluorometric conversion of NBD-Sph ([…]) to NBD-S1P by purified rSphK-1; format: biochemical
T1 construct: gene SPHK1; full-length, 6×His-SphK-1 (1155 bp CDS)
T1 sequence (Q9NYA1 whole entry): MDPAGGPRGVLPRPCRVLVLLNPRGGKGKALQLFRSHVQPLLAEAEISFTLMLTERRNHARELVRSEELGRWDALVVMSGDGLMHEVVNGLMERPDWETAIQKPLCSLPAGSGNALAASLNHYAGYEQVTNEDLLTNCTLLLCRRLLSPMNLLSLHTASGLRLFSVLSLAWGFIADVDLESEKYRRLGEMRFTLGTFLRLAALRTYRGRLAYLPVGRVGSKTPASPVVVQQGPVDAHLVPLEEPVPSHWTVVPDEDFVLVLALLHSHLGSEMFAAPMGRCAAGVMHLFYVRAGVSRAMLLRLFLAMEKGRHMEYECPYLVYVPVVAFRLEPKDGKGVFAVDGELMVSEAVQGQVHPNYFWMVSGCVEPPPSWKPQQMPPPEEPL

hHDAC-1 = target: T2, hHDAC-1 (Homo sapiens, UniProt Q13547); experiment: microscale thermophoresis; format: binding
T2 construct: gene HDAC1
T2 sequence (Q13547 whole entry): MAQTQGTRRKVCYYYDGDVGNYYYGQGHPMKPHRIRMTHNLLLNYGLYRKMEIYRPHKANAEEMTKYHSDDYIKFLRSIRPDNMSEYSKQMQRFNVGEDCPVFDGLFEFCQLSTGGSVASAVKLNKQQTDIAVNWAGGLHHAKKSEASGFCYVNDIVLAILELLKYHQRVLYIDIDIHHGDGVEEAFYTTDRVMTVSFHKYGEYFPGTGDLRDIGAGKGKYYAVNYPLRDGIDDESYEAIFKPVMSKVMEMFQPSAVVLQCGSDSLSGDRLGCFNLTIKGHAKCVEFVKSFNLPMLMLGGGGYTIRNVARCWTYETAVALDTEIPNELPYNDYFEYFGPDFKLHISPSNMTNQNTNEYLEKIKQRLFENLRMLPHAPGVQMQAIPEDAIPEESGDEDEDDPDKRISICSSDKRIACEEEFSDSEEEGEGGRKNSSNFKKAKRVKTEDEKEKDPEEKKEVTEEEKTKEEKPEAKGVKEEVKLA

[2] = target: T3, PfHDAC-1 (histone deacetylase-1) (Plasmodium falciparum, UniProt Q9XYC7); experiment: microscale thermophoresis; also lipid overlay, S1P-bead pull-down, and […] inhibition of the recombinant enzyme at […]; format: binding; parameters: gene HDAC1; full-length, 6×His-PfHDAC-1 (1380 bp CDS from Pf3D7)
T3 sequence (Q9XYC7 1-449): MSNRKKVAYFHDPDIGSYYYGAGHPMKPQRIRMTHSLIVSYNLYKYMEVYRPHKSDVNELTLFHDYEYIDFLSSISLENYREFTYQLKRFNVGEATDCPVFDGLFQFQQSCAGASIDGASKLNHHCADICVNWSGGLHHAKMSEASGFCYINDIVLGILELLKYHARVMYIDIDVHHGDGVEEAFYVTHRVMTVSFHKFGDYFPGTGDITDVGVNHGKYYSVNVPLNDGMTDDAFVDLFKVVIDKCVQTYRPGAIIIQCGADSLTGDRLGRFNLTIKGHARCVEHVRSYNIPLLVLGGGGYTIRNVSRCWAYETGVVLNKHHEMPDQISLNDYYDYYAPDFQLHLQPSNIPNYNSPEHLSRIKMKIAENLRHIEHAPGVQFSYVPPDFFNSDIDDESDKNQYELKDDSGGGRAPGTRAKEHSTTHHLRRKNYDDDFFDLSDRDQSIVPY

[3] = target: T3, PfHDAC-1 (histone deacetylase-1); experiment: biochemical; parameters: gene HDAC1

## N[C@@H](CO)[C@H](O)/C=C/CCCCCCCCCCCCCNc1ccc([N+](=O)[O-])c2nonc12 [NBD-Sph, NBD-Sphingosine]
[1]
  fluorometric conversion of NBD-Sph (10 μM) to NBD-S1P by purified rSphK-1: fluorimetry-based enzymatic assay using NBD-sphingosine

## CCCCCCCCCCCCC/C=C/[C@@H](O)[C@@H](N)COP(=O)(O)O [S1P, Sphingosine-1-Phosphate]
hHDAC-1
  Kd: 1610 ± 800 nM
[2]
  Kd: 177 ± 24 nM

## O=C(CCCCCCC(=O)Nc1ccccc1)NO [SAHA, Suberoylanilide Hydroxamic Acid]
[3]
  Kd: 2090 ± 450 nM
